Measurements taken from US7964613B2 (Asahi Kasei Pharma Corporation, priority 2007, dated 2011).

System: rabbit normal intraocular pressure
Test: Intraocular pressure reducing action
Assay type: in vivo, Japanese white rabbit
Conditions: Oryctolagus cuniculus, topical; 3 mM aqueous solution, 50 μl to the left eye; max IOP reduction (2, 4, 6 hours) / value immediately before administration; read-out: intraocular pressure reducing degree
Method: A Japanese white rabbit having a body weight of about 2 kg was placed in a positioner and naturalized for one week before the experiment. An opthalmologic local anesthesant (Benoxil) was administered to both eyes, and then intraocular pressure was measured by using a tonometer (Classic 30, Solan). A 3 mM aqueous solution of a test compound was administered in a volume of 50 μl to the left eye, and the right eye was not treated (control eye). The intraocular pressure values were measured for the left and right eyes immediately before, and 2, 4 and 6 hours after the administration of the aqueous solution of the test compound, and the difference of the measured values for the left and right eyes was considered an intraocular pressure reduction value of the test medicament at each measurement time. The largest difference of the values for the left and right eyes among the measured values at the measurement times (after 2, 4 and 6 hours) was considered the maximum intraocular pressure reduction value (max ? IOP) of each test medicament. The intraocular pressure reducing degree representing the intraocular pressure reducing action of each test medicament was calculated according to the following formula. Since rabbits show significant daily variation of intraocular pressure, daily variation is added when change of intraocular pressure is measured over time, and the intraocular pressure reducing action may be overestimated. Therefore, we used this calculation method of intraocular pressure reduction value in order to minimize the influence of the variation. Intraocular pressure reducing degree(%)=(max ? IOP/Intraocular pressure value immediately before administration)×100

| Compound | inhibition in vivo at 3000 µM |
| --- | --- |
| Cc1cncc2cccc(S(=O)(=O)N3CC[C@H](NC(=O)CN(C)C)C3)c12 [Example 72, (S)-3-[2-(Dimethylamino)acetyl]amino-1-(4-methyl-5-isoquinolinesulfonyl)pyrrolidine] | 10 to 20% |
| CN(C)CC(=O)N[C@H]1CCN(S(=O)(=O)c2cccc3cncc(Br)c23)C1 [Example 73, (S)-3-[(2-Dimethylamino)acetyl]amino-1-(4-bromo-5-isoquinolinesulfonyl)pyrrolidine] | 10 to 20% |
| O=C(CN1CCOCC1)N[C@H]1CCN(S(=O)(=O)c2cccc3cncc(Cl)c23)C1 [Example 88, (S)-3-[2-(Morpholin-1-yl)acetyl]amino-1-(4-chloro-5-isoquinolinesulfonyl)pyrrolidine] | 10 to 20% |
| COCC(=O)N[C@H]1CCN(S(=O)(=O)c2cccc3c(O)ncc(Cl)c23)C1 [Example 68-1, (S)-3-(2-Methoxyacetyl)amino-1-(1-hydroxy-4-chloro-5-isoquinolinesulfonyl)pyrrolidine] | 5 to 10% |
| CC(=O)N[C@H]1CCN(S(=O)(=O)c2cccc3cncc(Cl)c23)C1 [Example 49-1, (S)-3-(Acetylamino)-1-(4-chloro-5-isoquinolinesulfonyl)pyrrolidine] | 10 to 20% |
| NC(C(=O)N[C@H]1CCN(S(=O)(=O)c2cccc3cncc(Cl)c23)C1)c1ccccc1 (stereo partly drawn) [Example 106, (S)-3-[(2-Amino-2-phenyl)acetyl]amino-1-(4-chloro-5-isoquinolinesulfonyl)pyrrolidine] | ≥ 20% |
| N[C@H]1CCN(S(=O)(=O)c2cccc3cncc(-c4cnoc4)c23)C1 [Example 24-1, (S)-3-Amino-1-[4-(4-isoxazolyl)-5-isoquinolinesulfonyl]pyrrolidine] | 5 to 10% |
| O=C(CCn1cnnn1)N[C@H]1CCN(S(=O)(=O)c2cccc3cncc(Cl)c23)C1 [Example 82, (S)-3-[3-(1H-Tetrazol-1-yl)propionyl]amino-1-(4-chloro-5-isoquinolinesulfonyl)pyrrolidine] | 5 to 10% |
| O=C(CNC(=O)c1ccccc1)N[C@H]1CCN(S(=O)(=O)c2cccc3cncc(Cl)c23)C1 [Example 94, (S)-3-[(2-Benzoylamino)acetyl]amino-1-(4-chloro-5-isoquinolinesulfonyl)pyrrolidine] | 10 to 20% |
| CN(C)CCOCC(=O)N[C@H]1CCN(S(=O)(=O)c2cccc3cncc(Cl)c23)C1 [Example 111, (S)-3-[2-[2-(Dimethylamino)ethoxy]acetyl]amino-1-(4-chloro-5-isoquinolinesulfonyl)pyrrolidine] | 5 to 10% |
| O=S(=O)(c1cccc2cncc(Cl)c12)N1CC[C@H](NC2CCOC2)C1 (stereo partly drawn) [Example 59-1, (3S)-3-(3-Tetrahydrofuranyl)amino-1-(4-chloro-5-isoquinolinesulfonyl)pyrrolidine] | 10 to 20% |
| O=C(CCn1ccnc1)N[C@H]1CCN(S(=O)(=O)c2cccc3cncc(Cl)c23)C1 [Example 81, (S)-3-[3-(1H-Imidazol-1-yl)propionyl]amino-1-(4-chloro-5-isoquinolinesulfonyl)pyrrolidine] | 10 to 20% |
| COCC(=O)N(C)[C@H]1CCN(S(=O)(=O)c2cccc3cncc(F)c23)C1 [Example 116, (S)-3-[N-(2-Methoxyacetyl)-N-methyl]amino-1-(4-fluoro-5-isoquinolinesulfonyl)pyrrolidine] | 10 to 20% |
| O=C(CN1CCN(CCO)CC1)N[C@H]1CCN(S(=O)(=O)c2cccc3cncc(Cl)c23)C1 [Example 92, (S)-3-[2-[4-(2-Hydroxyethyl)piperazin-1-yl]acetyl]amino-1-(4-chloro-5-isoquinolinesulfonyl)pyrrolidine] | 10 to 20% |
| O=C(CO)N[C@H]1CCN(S(=O)(=O)c2cccc3cncc(Cl)c23)C1 [Example 74, (S)-3-(2-Hydroxyacetyl)amino-1-(4-chloro-5-isoquinolinesulfonyl)pyrrolidine] | 10 to 20% |
